The subject of series [1] is L1210. Description: Cytotoxicity against mouse L1210 cells. Particulars: mouse, l1210.
Series [2] deals with L1210. The series is described as follows: Activity against caspase-mediated apoptosis in mouse L1210 cells at 0.1 mM. In kind it is functional.
Series [3] deals with L1210. Description: Activity against caspase-mediated apoptosis in mouse L1210 cells. In kind it is functional.

Here are results for 67 compounds from ChEMBL document CHEMBL1139474, “Cellular apoptosis and cytotoxicity of phenolic compounds: a quantitative structure-activity relationship study” (J Med Chem, 2005).

Where only a bound is given, the exact number is not on record here.

On to `Cc1cc([N+](=O)[O-])ccc1O`, for which the “log(1/ID50)” value in series [1] is 3.49.
The same measure, in the same setting: under `Cc1cc(C)c(O)c(C)c1` stands 3.2.
With `CCCCCCCc1ccc(O)cc1`, the “log(1/ID50)” value in series [1] worked out at 4.49. This compound also yielded an Activity in series [2] below 15%.
For `CCCCc1ccc(O)cc1`, in series [1], the “log(1/ID50)” value worked out at 4.33. The same compound had an Activity in series [2] below 15%.
As for `CCCCCc1ccc(O)cc1`, the “log(1/ID50)” value in series [1] is reported as 4.47. The compound further displayed an Activity in series [2] below 15%.
`Cc1ccc(O)c(O)c1`: in series [1], the “log(1/ID50)” value worked out at 5.03.
Regarding `CC(C)(C)c1ccc(O)cc1`, the Activity in series [2] is listed as below 15%.
With `Oc1ccccc1Br`, the “log(1/ID50)” value in series [1] is on record as 3.44. This compound registered an Activity in series [2] below 15%.
For `N#Cc1ccccc1O` the same measures were 3.3 and below 15%.
For `COc1cc(C)cc(OC)c1O`, the “log(1/ID50)” value in series [3] was 2.4; in series [1] it was 2.89.
As for `Oc1ccccc1C(F)(F)F`, the “log(1/ID50)” value in series [1] came out at 3.22. This compound came in with an Activity in series [2] below 15%.
Take `Cc1cc(Br)ccc1O`: in series [1], the “log(1/ID50)” value is given as 3.46.
Same read-out and setting: under `COc1ccc(O)c(C)c1` stands 3.39.
`Oc1ccccc1F`: in series [1], the “log(1/ID50)” value is given as 3.2. Further, in series [2], the Activity is below 15%.
Take `CC(=O)Oc1cc(C(C)(C)C)c(O)c(C(C)(C)C)c1`: the “log(1/ID50)” value in series [3] was found to be 2.8; in series [1], 4.35.
As to `CCc1ccc(O)c(C(C)(C)C)c1`, the “log(1/ID50)” value in series [1] worked out at 3.8.
For `Cc1ccc(O)c(N)c1`, in series [3], the “log(1/ID50)” value came to 2.09.
Take `COc1cc(N)cc(OC)c1O`: the figures for the “log(1/ID50)” value in series [3] and in series [1] were 3.1 and 5.52, respectively.
For the compound `Cc1cc(F)ccc1O`, the “log(1/ID50)” value in series [1] is reported as 3.09.
For `CC(C)(C)c1cc([N+](=O)[O-])cc(C(C)(C)C)c1O`, the entries for the “log(1/ID50)” value in series [3] and in series [1] were 2.49 and 4.9, respectively.
`CC(C)(C)c1cccc(O)c1`: the “log(1/ID50)” value in series [1] is 3.88. The compound further had an Activity in series [2] below 15%.
Consider `COc1cc(/C=C/C=O)cc(OC)c1O`, for which the results for the “log(1/ID50)” value in series [3] and in series [1] were 2.6 and 4.25, respectively.
In series [2], `CC(C)(C)c1ccc(O)cc1.Cl` showed an Activity below 15%.
As for `CC(C)(C)c1cc(C#N)cc(C(C)(C)C)c1O`, the results for the “log(1/ID50)” value in series [3] and in series [1] were 2.88 and 4.68, respectively.
As for `CC(C)(C)c1cc(CO)cc(C(C)(C)C)c1O`, the entries for the “log(1/ID50)” value in series [3] and in series [1] were 2.39 and 3.88, respectively.
Regarding `CN(C)c1cccc(O)c1`, the “log(1/ID50)” value in series [1] was determined as 4.11. In series [2], this compound returned an Activity below 15%.
For `COc1cc(OC)c(O)c(OC)c1`, the “log(1/ID50)” value in series [3] is given as 2.2.
`CSc1ccccc1O`: in series [1], the “log(1/ID50)” value is recorded as 3.7. This compound also showed an Activity in series [2] below 15%.
Turning to `NC(=O)Nc1ccccc1O`, in series [1], the “log(1/ID50)” value worked out at 3.5. In series [2], this compound gave an Activity below 15%.
For the compound `CCc1cc(C(C)(C)C)c(O)c(C(C)(C)C)c1`, the “log(1/ID50)” value in series [3] is 2.43; in series [1], 3.91.
The like results for `CC(C)(C)c1cc(C=O)cc(C(C)(C)C)c1O` were, in that order, 2.49 and 4.06.
For `CC(=O)c1cc(C(C)(C)C)c(O)c(C(C)(C)C)c1` the same measures were 2.41 and 3.94.
The like results for `CC(C)(C)c1cccc(C(C)(C)C)c1O` were, in that order, 1.9 and 3.85.
Consider `Cc1ccc(O)c(C(C)(C)C)c1`, for which the “log(1/ID50)” value in series [1] came to 3.8.
On the same count and under the same terms, under `Cc1cccc(C(C)(C)C)c1O` stands 3.73; under `CC(C)(C)c1ccc(O)c(C(C)(C)C)c1`, 4.24; under `Cc1ccc(O)c(C)c1`, 3.04.
In the case of `CCc1cccc(CC)c1O`, the “log(1/ID50)” value in series [1] was 3.26.
On the same count and under the same terms, under `Cc1cccc(C)c1O` stands 3.02.
For `CCc1ccccc1O`, the “log(1/ID50)” value in series [3] is recorded as 2.11. Further, the Activity in series [2] is below 15%.
In the case of `CC(C)Cc1ccccc1O`, the “log(1/ID50)” value in series [1] worked out at 3.9. The same compound showed an Activity in series [2] below 15%.
Turning to `CC(C)(C)c1cc(O)cc(C(C)(C)C)c1O`, the “log(1/ID50)” value in series [3] was found to be 2.5; in series [1] it was 4.16.
Take `CC(=O)c1ccc(O)c(C)c1`: the “log(1/ID50)” value in series [1] worked out at 3.14.
With `CC(C)(C)c1cc(C(C)(C)C)c(O)c(C(C)(C)C)c1`, the “log(1/ID50)” value in series [3] amounted to 2.1; in series [1], 5.05.
The like results for `COc1cc(NC(C)=O)cc(OC)c1O` were, in that order, 2.5 and 3.99.
With `COCc1cc(C(C)(C)C)c(O)c(C(C)(C)C)c1`, the “log(1/ID50)” value in series [3] is reported as 2.9; in series [1], 3.93.
`Oc1cccc(Cl)c1`: the Activity in series [2] is below 15%.
In the case of `Oc1ccc(F)cc1`, in series [1], the “log(1/ID50)” value amounted to 3.83. Also, in series [2], the Activity is listed as below 15%.
In series [2], `Oc1ccc(Br)cc1` registered an Activity below 15%.
On to `CCc1cccc(O)c1`, for which, in series [1], the “log(1/ID50)” value was found to be 3.71. The Activity in series [2] is on record as below 15%.
In the case of `COc1cc(C(C)(C)C)c(O)c(C(C)(C)C)c1`, the “log(1/ID50)” value in series [3] came out at 2.87; in series [1] it was 3.71.
Turning to `CCOc1ccccc1O` [1-hydroxy-2-ethoxybenzene], the “log(1/ID50)” value in series [1] was 3.25. The Activity in series [2] is recorded as below 15%.
As to `Nc1cc([N+](=O)[O-])ccc1O` [2-AMINO-4-NITROPHENOL], in series [3], the “log(1/ID50)” value came to 2.46.
On to `Oc1ccccc1Cl` [2-CHLOROPHENOL], for which the “log(1/ID50)” value in series [1] came out at 3.22. Further, in series [2], the Activity is on record as below 15%.
Regarding `Cl.Nc1cccc(O)c1` [3-AMINOPHENOL HYDROCHLORIDE], the “log(1/ID50)” value in series [1] was 4.11. The same compound returned an Activity in series [2] below 15%.
On to `O=Cc1ccc(O)cc1` [4-HYDROXYBENZALDEHYDE], for which, in series [1], the “log(1/ID50)” value came out at 3.08. In addition, the Activity in series [2] is recorded as below 15%.
The like results for `CCCCCCCCCc1ccc(O)cc1` [4-NONYLPHENOL] were, in that order, 4.75 and below 15%.
As for `CC(=O)Nc1ccc(O)cc1` [ACETAMINOPHEN], the “log(1/ID50)” value in series [1] was 3.73. For the same compound, in series [2], the Activity is given as below 15%.
With `COc1cc(C(C)=O)cc(OC)c1O` [ACETOSYRINGONE], the “log(1/ID50)” value is on record as 2.8 in series [3] and 3.06 in series [1].
For `Oc1ccccc1O` [CATECHOL], in series [1], the “log(1/ID50)” value came out at 3.75. For the same compound, the Activity in series [2] is below 15%.
Consider `COc1ccccc1O.Cl` [GUAIACOL HYDROCHLORIDE], for which the “log(1/ID50)” value in series [1] was 3.78. The same compound displayed an Activity in series [2] below 15%.
For `Oc1ccc(O)cc1` [HYDROQUINONE] the same measures were 4.59 and below 15%.
The like results for `O=[N+]([O-])c1ccccc1O` [NITROPHENOLATE] were, in that order, 3.34 and below 15%.
Consider `CC(C)c1cccc(C(C)C)c1O` [PROPOFOL], for which the “log(1/ID50)” value in series [1] came out at 3.25.
Turning to `OCc1ccccc1O` [SALICYL ALCOHOL], the “log(1/ID50)” value in series [1] is on record as 2.7. For the same compound, in series [2], the Activity is below 15%.
For `COc1cc(C=O)cc(OC)c1O` [SYRINGALDEHYDE], the results for the “log(1/ID50)” value in series [3] and in series [1] were 2.9 and 3.1, respectively.
Regarding `COc1cccc(OC)c1O` [SYRINGOL], the “log(1/ID50)” value in series [3] worked out at 2.7; in series [1] it was 3.86.
